Test results as given in US20120028930A1, “FLUPIRTINE SALTS AND POLYMORPHS” (Bionevia Pharmaceuticals Inc., priority 2010, published 2012).
Where a name gives a salt, the structure may show the parent alone.

Experiments:
[1] = stability towards oxidation and discoloration on storage exposed to air; conditions: storage period of 30 days at room temperature, in contrast to other acid addition salts, e.g. maleate and gluconate
From the text: HPLC can be performed after preparation of the salts and repeated after 14 days of storage at room temperature under normal air containing about 21% oxygen.
HPLC analysis can be performed after isolation and drying of flupirtine sulfonate salts and repeated after 14 days of storage at room temperature under open air.
Discolouration can be measured using optical comparison with a standard: the RAL scale of colours (see list). The colour changes during the experiment is compared to this standard list and the appropriate value is noted. The intensity is increasing on a scale ranging from 1 to 10. A higher number means more discolouration. The increase in colour intensity is not proportional but qualitative.

dissolution rate = type: physicochemical
[2] = cited from earlier work

Structure (SMILES)	stability towards oxidation and towards discoloration [1]	dissolution rate (dissolution rate)	solubility in water [2]
CCC(=O)O.CCOC(=O)Nc1ccc(NCc2ccc(F)cc2)nc1N [flupirtine propionate, 2-amino-3-carbethoxyamino-6-(4-fluoro-benzylamino)-pyridine propionate]	substantially improved stability		
CC(=O)O.CCOC(=O)Nc1ccc(NCc2ccc(F)cc2)nc1N [flupirtine acetate, 2-amino-3-carbethoxyamino-6-(4-fluoro-benzylamino)-pyridine acetate]	substantially improved stability		
CCOC(=O)Nc1ccc(NCc2ccc(F)cc2)nc1N.CS(=O)(=O)O [flupirtine mesylate, 2-amino-3-carbethoxyamino-6-(4-fluoro-benzylamino)-pyridine mesylate]	substantially improved stability		
CCOC(=O)Nc1ccc(NCc2ccc(F)cc2)nc1N [flupirtine maleate]		0.088 [μg/mL]/min	insoluble
